Data published in the NIST ThermoML archive (doi:10.1021/je900137r).
± gives the expanded uncertainty stated by the source.

Conditions: Crystal; Adiabatic calorimetry

## CCC [propane]
  Triple point temperature: 85.53 ± 0.039 K
